Data from ChEMBL document CHEMBL5537161, “Structure-Guided Design, Synthesis, and Antivirulence Assessment of Covalent Staphylococcus aureus Sortase A Inhibitors” (J Med Chem, 2024).
Calls of active or inactive are those of the source. The rule behind the calls is not given here.

How the values were obtained:
[1] = tested on: Sortase A (Staphylococcus aureus), Q9S446 [UNDEFINED MUTATION]; assay: Covalent inhibition of Staphylococcus aureus sortase A N24 deletion mutant assessed as ratio of Kinact to Ki incubated for 60 mins
[2] = Covalent inhibition of Streptococcus pyogenes Sortase A N81 deletion mutant assessed as inactivation constant incubated for 60 mins
Staphylococcus aureus [3] = assay: Inhibition of Staphylococcus aureus USA300 biofilm formation incubated for 14 hrs by Crystal violet staining based assay; assay type: functional, organism-based; conditions: dose 12.5-100 µM
[4] = tested on: Sortase A (Staphylococcus aureus), Q9S446 [UNDEFINED MUTATION]; assay: Covalent inhibition of Staphylococcus aureus sortase A N24 deletion mutant assessed as inactivation rate constant incubated for 60 mins
Staphylococcus aureus [5] = assay: Antivirulence activity against Staphylococcus aureus Newman assessed as reduction in abundance of anchored SpA in bacterial envelope by Western blotting analysis; assay type: functional, organism-based; conditions: dose 6.25-100 µM
Staphylococcus aureus [6] = assay: Bactericidal activity against Staphylococcus aureus Newman assessed as reduction in bacterial growth incubated for 16 to 18 hrs; assay type: functional; conditions: time 16-18 hrs
Staphylococcus aureus [7] = assay: Antibacterial activity against Staphylococcus aureus Newman infected in Galleria mellonella assessed as reduction in melanization at 200 uM pretreated with compound followed by larvae infection measured after 24 hrs; assay type: functional, organism-based
[8] = Toxicity in Galleria mellonella larvae assessed as change in appearance at 60 mg/kg measured after 120 hrs; assay type: organism-based; conditions: in vivo
Staphylococcus aureus [9] = assay: Antivirulence activity against Staphylococcus aureus Newman assessed as reduction in abundance of Sbi at 6.25 to 100 uM by Western blotting analysis; assay type: functional, organism-based; conditions: dose 6.25-100 µM
[10] = tested on: Sortase A (Staphylococcus aureus), Q9S446 [UNDEFINED MUTATION]; assay: Irreversible inhibition of Staphylococcus aureus sortase A N24 deletion mutant preincubated with compound for 1 to 60 mins followed by substrate addition by FRET based assay; conditions: time 1-60 min, TDE = time-dependent effect
[11] = Toxicity in Galleria mellonella larvae assessed as effect on survival at 60 mg/kg measured after 120 hrs; assay type: organism-based; conditions: in vivo
Procathepsin L [12] = target: T1, Procathepsin L (Homo sapiens, UniProt P07711); assay: Inhibition of cathepsin L (unknown origin) at 2 uM using Cbz-Phe-Arg-AMC as substrate preincubated for 5 mins followed by substrate addition by fluorescence based assay
Target sequence in this assay (P07711 114-333 limits assumed): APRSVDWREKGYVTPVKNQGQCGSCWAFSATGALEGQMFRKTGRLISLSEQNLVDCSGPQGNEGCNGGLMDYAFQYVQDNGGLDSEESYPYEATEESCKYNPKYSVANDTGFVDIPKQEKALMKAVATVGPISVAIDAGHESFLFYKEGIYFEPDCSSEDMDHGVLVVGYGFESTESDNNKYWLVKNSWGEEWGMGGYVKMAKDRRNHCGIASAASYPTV

[13] = tested on: Sortase A (Staphylococcus aureus), Q9S446 [UNDEFINED MUTATION]; assay: Inhibition of Staphylococcus aureus Sortase A N24 deletion mutant transpeptidation assessed as thermal stabilization by measuring change in melting temperature at 80 uM incubated for 15 mins by Nano-DSF assay
[14] = Toxicity in Galleria mellonella assessed as change in color at 60 mg/kg measured after 120 hrs; assay type: organism-based; conditions: in vivo
Streptococcus pyogenes [15] = assay: Covalent inhibition of Streptococcus pyogenes Sortase A N81 deletion mutant assessed as ratio of Kinact to Ki incubated for 60 mins
Staphylococcus aureus [16] = assay: Antibacterial activity against Staphylococcus aureus Newman infected in Galleria mellonella assessed as increase in larvae survival at 30 mg/kg measured every 24 hrs for 5 days; assay type: functional; conditions: time 5 day
Staphylococcus aureus [17] = assay: Antibacterial activity against Staphylococcus aureus USA300 infected in Galleria mellonella assessed as reduction in melanization at 200 uM pretreated with compound followed by larvae infection measured after 24 hrs; assay type: functional, organism-based
Staphylococcus aureus [18] = assay: Antibacterial activity against Staphylococcus aureus USA300 infected in Galleria mellonella assessed as increase in larvae survival at 30 mg/kg measured every 24 hrs for 5 days; assay type: functional; conditions: time 5 day
[19] = Inhibition of Streptococcus pyogenes Sortase A N81 deletion mutant transpeptidation using IsdA64-323 as substrate preincubated for 20 mins followed by substrate addition and measured after 1.5 hrs by SDS-PAGE analysis
Procathepsin L [20] = target: T1, Procathepsin L; assay: Inhibition of cathepsin L (unknown origin) using Cbz-Phe-Arg-AMC as substrate preincubated for 5 mins followed by substrate addition by fluorescence based assay
Target sequence in this assay (P07711 whole entry): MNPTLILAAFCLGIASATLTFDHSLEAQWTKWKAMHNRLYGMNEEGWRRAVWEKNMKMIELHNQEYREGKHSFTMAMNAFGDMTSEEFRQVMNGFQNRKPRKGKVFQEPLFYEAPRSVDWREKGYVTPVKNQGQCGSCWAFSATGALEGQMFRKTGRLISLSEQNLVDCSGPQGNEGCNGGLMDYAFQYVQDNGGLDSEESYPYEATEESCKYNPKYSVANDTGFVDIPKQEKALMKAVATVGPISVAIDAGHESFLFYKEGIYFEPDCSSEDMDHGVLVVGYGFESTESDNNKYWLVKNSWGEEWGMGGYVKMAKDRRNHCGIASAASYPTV

Sortase A [21] = target: T2, Sortase A (Staphylococcus aureus, UniProt Q9S446, N24DEL); assay: Inhibition of Staphylococcus aureus Sortase A N24 deletion mutant transpeptidation using IsdA64-323 as substrate preincubated for 20 mins followed by substrate addition and measured after 1.5 hrs by SDS-PAGE analysis
Streptococcus pyogenes [22] = assay: Inhibition of Streptococcus pyogenes Sortase A N81 deletion mutant transpeptidation assessed as thermal stabilization by measuring change in melting temperature at 80 uM incubated for 15 mins by Nano-DSF assay
Staphylococcus aureus [23] = assay: Antibacterial activity against Staphylococcus aureus Newman assessed as reduction in bacterial growth at 100 uM incubated for 14 hrs by microplate reader assay; assay type: functional, organism-based
Staphylococcus aureus [24] = assay: Antibacterial activity against Staphylococcus aureus USA300 assessed as reduction in bacterial growth at 100 uM incubated for 14 hrs by microplate reader assay; assay type: functional, organism-based
Staphylococcus aureus [25] = assay: Inhibition of Staphylococcus aureus Newman biofilm formation incubated for 14 hrs by Crystal violet staining based assay; assay type: functional, organism-based; conditions: dose 12.5-100 µM
Cathepsin B [26] = target: T3, Cathepsin B (Homo sapiens, UniProt P07858); assay: Inhibition of cathepsin B (unknown origin) at 2 uM using Cbz-Phe-Arg-AMC as substrate preincubated for 5 mins followed by substrate addition by fluorescence based assay
Streptococcus pyogenes [27] = assay: Irreversible inhibition of Streptococcus pyogenes Sortase A N81 deletion mutant preincubated with compound for 1 to 60 mins followed by substrate addition by FRET based assay; conditions: time 1-60 min, TDE = time-dependent effect
Cathepsin B [28] = target: T3, Cathepsin B; assay: Inhibition of cathepsin B (unknown origin) using Cbz-Phe-Arg-AMC as substrate preincubated for 5 mins followed by substrate addition by fluorescence based assay
Sortase A [29] = target: T2, Sortase A; assay: Covalent inhibition of Staphylococcus aureus sortase A N24 deletion mutant assessed as inactivation constant incubated for 60 mins
Sortase A [30] = target: T2, Sortase A; assay: Inhibition of Staphylococcus aureus sortase A N24 deletion mutant using Abz-LPATG-Dnp as substrate preincubated for 20 mins followed by substrate addition by FRET assay
Streptococcus pyogenes [31] = assay: Covalent inhibition of Streptococcus pyogenes Sortase A N81 deletion mutant assessed as inactivation rate constant incubated for 60 mins

## O=C1NC(=O)C(=C/C=C/c2ccc(OCc3ccc(F)cc3)cc2)C(=O)N1
[1]
  Ratio: 216 µM⁻¹ min⁻¹
[2]
  Ki: 5400 nM
Staphylococcus aureus [3]
  inhibition: Dose-Dependent Effect
[4]
  Kinact: 130 min⁻¹
Staphylococcus aureus [5]
  Activity: Active
Staphylococcus aureus [6]
  MIC: > 128 µg/mL
Staphylococcus aureus [7]
  Activity: Active
[8]
  Activity: Non-Toxic
Staphylococcus aureus [9]
  Activity: Active
[10]
  inhibition: Tde
[11]
  Activity: Non-Toxic
Procathepsin L [12]
  inhibition: Active
[13]
  ΔTm: 4.5 °C
[14]
  Activity: Non-Toxic
Streptococcus pyogenes [15]
  Ratio: 81.1 µM⁻¹ min⁻¹
Staphylococcus aureus [16]
  Activity: 60%
Staphylococcus aureus [17]
  Activity: Active
Staphylococcus aureus [18]
  Activity: 40%
[19]
  IC50: 4900 nM
Procathepsin L [20]
  IC50: 39.7 nM
Sortase A [21]
  IC50: 5200 nM
Streptococcus pyogenes [22]
  ΔTm: 9.3 °C
Staphylococcus aureus [23]
  Activity: inactive
Staphylococcus aureus [24]
  Activity: inactive
Staphylococcus aureus [25]
  inhibition: Dose-Dependent Effect
Cathepsin B [26]
  inhibition: Active
Streptococcus pyogenes [27]
  inhibition: Tde
Cathepsin B [28]
  IC50: 36.1 nM
Sortase A [29]
  Ki: 1600 nM
Sortase A [30]
  IC50: 600 nM
Streptococcus pyogenes [31]
  Kinact: 1170 min⁻¹
